Values after ≈ are worked out from the molar mass of the structure shown. Like-named read-outs stand apart in the source and are kept apart here.
Legend:
Experiment in all cases: Minimum inhibitory concentration, serial dilution method on agar plate
Format in all cases: cell-based
[1] = test system: Salmonella typhi 0-901 (NCTC 8393); conditions: Salmonella enterica
Shigella sonnei EW 33 = test system: Shigella sonnei EW 33
Description: The antimicrobial activity of the following test compounds on various test organisms listed below was determined by the serial dilution method on agar plate (Heart Infusion agar produced by Difco Co.) (see CHEMOTHERAPY 22, pp. 1126-1128 (1974)), and the minimum inhibitory concentrations (mcg/ml) obtained are shown in Tables 1, 2 and 3 below.
A sample of each test organism was prepared so that the population of the organism was 1×10^8 cells/ml (O.D. 660 mμ=0.07 to 0.16) and 1×10^6 cells/ml (which was obtained by diluting 100 fold the above 1×10^8 cells/ml preparation).

[2] = test system: Streptococcus pyogenes IID S-23; conditions: Streptococcus pyogenes, read-out: Minimum Inhibitory Concentration
Proteus rettgeri NIH 96 = conditions: Providencia rettgeri
[3] = test system: Staphylococcus aureus FDA 209 P; conditions: Staphylococcus aureus, read-out: Minimum Inhibitory Concentration
[4] = test system: Serratia marcescens IFO 12648
[5] = test system: Escherichia Coli NIHJ JC-2 (IFO 12734)
[6] = test system: Pseudomonas aeruginosa E-2; conditions: Pseudomonas aeruginosa, read-out: Minimum Inhibitory Concentration
[7] = test system: Pseudomonas aeruginosa NCTC 10490; conditions: for Minimum Inhibitory Concentration: 1×10^6 cells/ml; for MIC: Pseudomonas aeruginosa, NCTC10490, 1×10^8 cells/ml
Klebsiella pneumoniae = test system: Klebsiella pneumoniae
[8] = test system: Pseudomonas aeruginosa ATCC 10145; conditions: Pseudomonas aeruginosa, read-out: Minimum Inhibitory Concentration
Pseudomonas putida 12996 = conditions: read-out: Minimum Inhibitory Concentration
[9] = read-out: Minimum Inhibitory Concentration, 1×10^6 cells/ml
[10] = read-out: Minimum Inhibitory Concentration, 1×10^8 cells/ml
[11] = NIH96, 1×10^6 cells/ml, read-out: Minimum Inhibitory Concentration
[12] = NIH96, 1×10^8 cells/ml, read-out: Minimum Inhibitory Concentration
[13] = IFO12648, 1×10^6 cells/ml, read-out: Minimum Inhibitory Concentration
[14] = IFO12648, 1×10^8 cells/ml, read-out: Minimum Inhibitory Concentration
[15] = 1×10^6 cells/ml, read-out: Minimum Inhibitory Concentration
[16] = 1×10^8 cells/ml, read-out: Minimum Inhibitory Concentration
[17] = NIH96, read-out: Minimum Inhibitory Concentration, 1×10^8 cells/ml
[18] = Pseudomonas putida, 12996, 1×10^6 cells/ml
[19] = Pseudomonas putida, 12996, 1×10^8 cells/ml

CC1Cc2c(N3CCOCC3)c(F)cc3c(=O)c(C(=O)O)cn1c23 (stereo not shown) [Compound 7, 9-Morpholino-8-fluoro-2-methyl-1,2-dihydro-6-oxo-pyrrolo[3,2,1-ij]quinoline-5-carboxylic acid]
MIC [1, 9]: 0.024 µg/mL (≈ 0.0722 µM) | MIC [1, 10]: 0.024 µg/mL (≈ 0.0722 µM) | MIC (Shigella sonnei EW 33; EW33, 1×10^6 cells/ml): 0.024 µg/mL (≈ 0.0722 µM) | MIC (Shigella sonnei EW 33; EW33, 1×10^8 cells/ml): 0.024 µg/mL (≈ 0.0722 µM) | MIC ([2]; IIDS23, 1×10^6 cells/ml): 0.78 µg/mL (≈ 2.35 µM) | MIC ([2]; IIDS23, 1×10^8 cells/ml): 0.78 µg/mL (≈ 2.35 µM) | MIC (Proteus rettgeri NIH 96; [11]): 0.05 µg/mL (≈ 0.15 µM) | MIC (Proteus rettgeri NIH 96; [12]): 0.05 µg/mL (≈ 0.15 µM) | MIC ([3]; FDA209, 1×10^6 cells/ml): 0.024 µg/mL (≈ 0.0722 µM) | MIC ([3]; FDA209, 1×10^8 cells/ml): 0.024 µg/mL (≈ 0.0722 µM) | MIC [4, 13]: 0.2 µg/mL (≈ 0.602 µM) | MIC [4, 14]: 0.39 µg/mL (≈ 1.17 µM) | MIC [5, 15]: 0.2 µg/mL (≈ 0.602 µM) | MIC [5, 16]: 0.2 µg/mL (≈ 0.602 µM) | MIC ([6]; E2, 1×10^6 cells/ml): 1.56 µg/mL (≈ 4.69 µM) | MIC ([6]; E2, 1×10^8 cells/ml): 1.56 µg/mL (≈ 4.69 µM) | Minimum Inhibitory Concentration [7]: 1.56 µg/mL | MIC [7]: 1.56 µg/mL (≈ 4.69 µM) | MIC (Klebsiella pneumoniae; [15]): 0.1 µg/mL (≈ 0.301 µM) | MIC (Klebsiella pneumoniae; [16]): 0.2 µg/mL (≈ 0.602 µM) | MIC ([8]; ATCC10145, 1×10^6 cells/ml): 1.56 µg/mL (≈ 4.69 µM) | MIC ([8]; ATCC10145, 1×10^8 cells/ml): 1.56 µg/mL (≈ 4.69 µM)

CC(=O)OC1CCN(c2c(F)cc3c(=O)c(C(=O)O)cn4c3c2CCC4C)CC1 (stereo not shown) [Compound 3, 9-Fluoro-8-(4-acetyloxy-1-piperidyl)-5-methyl-6,7-dihydro-1-oxo-1H,5H-benzo[ij]quinolizine-2-carboxylic acid]
MIC [1, 9]: 0.1 µg/mL (≈ 0.248 µM) | MIC [1, 10]: 0.1 µg/mL (≈ 0.248 µM) | MIC (Shigella sonnei EW 33; EW33, 1×10^6 cells/ml): 0.2 µg/mL (≈ 0.497 µM) | MIC (Shigella sonnei EW 33; EW33, 1×10^8 cells/ml): 0.2 µg/mL (≈ 0.497 µM) | MIC ([2]; IIDS23, 1×10^6 cells/ml): 0.78 µg/mL (≈ 1.94 µM) | MIC ([2]; IIDS23, 1×10^8 cells/ml): 0.78 µg/mL (≈ 1.94 µM) | MIC (Proteus rettgeri NIH 96; NIH96, read-out: Minimum Inhibitory Concentration, 1×10^6 cells/ml): 0.2 µg/mL (≈ 0.497 µM) | MIC (Proteus rettgeri NIH 96; [17]): 0.2 µg/mL (≈ 0.497 µM) | MIC ([3]; FDA209, 1×10^6 cells/ml): 0.05 µg/mL (≈ 0.124 µM) | MIC ([3]; FDA209, 1×10^8 cells/ml): 0.05 µg/mL (≈ 0.124 µM) | MIC [4, 13]: 1.56 µg/mL (≈ 3.88 µM) | MIC [4, 14]: 3.13 µg/mL (≈ 7.78 µM) | MIC [5, 15]: 0.39 µg/mL (≈ 0.969 µM) | MIC [5, 16]: 0.39 µg/mL (≈ 0.969 µM) | MIC (Pseudomonas putida 12996; [18]): 6.25 µg/mL (≈ 15.5 µM) | MIC (Pseudomonas putida 12996; [19]): 6.25 µg/mL (≈ 15.5 µM) | MIC ([6]; E2, 1×10^6 cells/ml): 6.25 µg/mL (≈ 15.5 µM) | MIC ([6]; E2, 1×10^8 cells/ml): 6.25 µg/mL (≈ 15.5 µM) | MIC (Klebsiella pneumoniae; [15]): 0.39 µg/mL (≈ 0.969 µM) | MIC (Klebsiella pneumoniae; [16]): 0.39 µg/mL (≈ 0.969 µM) | MIC ([8]; ATCC10145, 1×10^6 cells/ml): 3.13 µg/mL (≈ 7.78 µM) | MIC ([8]; ATCC10145, 1×10^8 cells/ml): 6.25 µg/mL (≈ 15.5 µM)

CC1CCc2c(N3CCOCC3)c(F)cc3c(=O)c(C(=O)O)cn1c23 (stereo not shown) [Compound 2, 9-Fluoro-8-morpholino-5-methyl-6,7-dihydro-1-oxo-1H,5H-benzo[ij]quinolizine-2-carboxylic acid]
MIC [1, 9]: 0.05 µg/mL (≈ 0.144 µM) | MIC [1, 10]: 0.1 µg/mL (≈ 0.289 µM) | MIC (Shigella sonnei EW 33; EW33, 1×10^6 cells/ml): 0.1 µg/mL (≈ 0.289 µM) | MIC (Shigella sonnei EW 33; EW33, 1×10^8 cells/ml): 0.1 µg/mL (≈ 0.289 µM) | MIC ([2]; IIDS23, 1×10^6 cells/ml): 0.78 µg/mL (≈ 2.25 µM) | MIC ([2]; IIDS23, 1×10^8 cells/ml): 0.78 µg/mL (≈ 2.25 µM) | MIC (Proteus rettgeri NIH 96; [11]): 0.05 µg/mL (≈ 0.144 µM) | MIC (Proteus rettgeri NIH 96; [17]): 0.1 µg/mL (≈ 0.289 µM) | MIC ([3]; FDA209, 1×10^6 cells/ml): 0.025 µg/mL (≈ 0.0722 µM) | MIC ([3]; FDA209, 1×10^8 cells/ml): 0.05 µg/mL (≈ 0.144 µM) | MIC [4, 13]: 0.39 µg/mL (≈ 1.13 µM) | MIC [4, 14]: 0.78 µg/mL (≈ 2.25 µM) | MIC [5, 9]: 0.1 µg/mL (≈ 0.289 µM) | MIC [5, 10]: 0.2 µg/mL (≈ 0.577 µM) | MIC (Pseudomonas putida 12996; [18]): 3.13 µg/mL (≈ 9.04 µM) | MIC (Pseudomonas putida 12996; [19]): 6.25 µg/mL (≈ 18 µM) | MIC ([6]; E2, 1×10^6 cells/ml): 3.13 µg/mL (≈ 9.04 µM) | MIC ([6]; E2, 1×10^8 cells/ml): 6.25 µg/mL (≈ 18 µM) | MIC (Klebsiella pneumoniae; [9]): 0.2 µg/mL (≈ 0.577 µM) | MIC (Klebsiella pneumoniae; [10]): 0.2 µg/mL (≈ 0.577 µM) | MIC ([8]; ATCC10145, 1×10^6 cells/ml): 3.13 µg/mL (≈ 9.04 µM) | MIC ([8]; ATCC10145, 1×10^8 cells/ml): 3.13 µg/mL (≈ 9.04 µM)

CC1Cc2c(N3CCN(C(F)(F)F)CC3)c(F)cc3c(=O)c(C(=O)O)cn1c23.Cl (stereo not shown) [Compound 8, 9-(4-Trifluoromethyl-1-piperazinyl)-8-fluoro-2-methyl-1,2-dihydro-6-oxo-pyrrolo[3,2,1-ij]quinoline-5-carboxylic acid hydrochloride]
MIC [1, 9]: ≤ 0.006 µg/mL | MIC [1, 10]: ≤ 0.006 µg/mL | MIC (Shigella sonnei EW 33; EW33, 1×10^6 cells/ml): ≤ 0.006 µg/mL | MIC (Shigella sonnei EW 33; EW33, 1×10^8 cells/ml): 0.012 µg/mL | MIC ([2]; IIDS23, 1×10^6 cells/ml): 0.39 µg/mL | MIC ([2]; IIDS23, 1×10^8 cells/ml): 0.78 µg/mL | MIC (Proteus rettgeri NIH 96; [11]): < 0.006 µg/mL | MIC (Proteus rettgeri NIH 96; [12]): 0.012 µg/mL | MIC ([3]; FDA209, 1×10^6 cells/ml): 0.024 µg/mL | MIC ([3]; FDA209, 1×10^8 cells/ml): 0.05 µg/mL | MIC ([4]; IFO12648, read-out: Minimum Inhibitory Concentration, 1×10^6 cells/ml): 0.1 µg/mL | MIC ([4]; IFO12648, read-out: Minimum Inhibitory Concentration, 1×10^8 cells/ml): 0.2 µg/mL | MIC [5, 15]: 0.024 µg/mL | MIC [5, 16]: 0.05 µg/mL | MIC ([6]; E2, 1×10^6 cells/ml): 0.39 µg/mL | MIC ([6]; E2, 1×10^8 cells/ml): 0.39 µg/mL | Minimum Inhibitory Concentration [7]: 0.39 µg/mL | MIC [7]: 0.39 µg/mL | MIC (Klebsiella pneumoniae; [15]): 0.012 µg/mL | MIC (Klebsiella pneumoniae; [16]): 0.05 µg/mL | MIC ([8]; ATCC10145, 1×10^6 cells/ml): 0.39 µg/mL | MIC ([8]; ATCC10145, 1×10^8 cells/ml): 0.39 µg/mL
